From patent publication US20220386608A1, “INSECTICIDAL MIXTURES OF BIFENTHRIN AND CHLORANTRANILIPROLE” (priority 2019, published 2022)

Legend:
Assay type in all cases: in vivo
H. armigera = assay: Example 5B, protocol B: mortality on treated leaves, synergy by Colby equation; settings: for Mortality: mean mortality after 96 hours, substance and dose g a.i./ha per treatment number of Table 5B
Description: (§1) Ratios of bifenthrin to chlorantraniliprole were evaluated on various crops and target pests as indicated in the protocol disclosed Table 5A below where “Lab.” Refers to laboratory, “No. of Treat.” refers to number of treatments, and Total refers to the total number of insects tested. In each evaluation, foliar application was done, the insecticide action was contact/ingestion and 32 insects were evaluated in each treatment.
(§2) The treatment schedule shown in Table 5B was used where “dose” refers to application rate, “ratio” refers to the ratio of bifenthrin to chlorantraniliprole on an a.i. basis.
(§3) Treatments were applied inside a sprayer chamber simulating a volume of 200 l/ha over soybean plants. After a drying period, treated leaves were removed from the plants and placed inside 16 well trays containing agar solution (2%) covered with filter paper. Two 16 well trays were prepared for each treatment (32 larvae/treatment). One 3rd instar larva from laboratory strains was placed in each well over the treated leaf. Trays were kept under controlled conditions of 25° C., photoperiod of 14:10 hours, and 60% RH. Morality was evaluated after 96 hours. Mortality is defined as dead and moribund larvae.
(§4) Synergy or antagonism was determined using the Colby Equation where: […]
(§5) X is the observed result for compound A at p grams a.e./ha. Y is the observed result for compound B at q grams a.e./ha. E is the expected result for a mixture of A and B at (p+q) g a.i./ha if there is no synergy or antagonism. If the observed value for the combination of A and B is greater than E (Obs>E) then synergy is indicated. If the observed value for the combination of A and B is less than E (Obs<E) then antagonism is indicated.
Morality on H. armigera was evaluated according to protocol B (refer to Table 5B) using treatment numbers 5.1 to 5.13 (refer to Table 5B).

[1] = tested on: S. frugiperda laboratory strain (susceptible); assay: Example 5C, protocol G: mortality on treated leaves, synergy by Colby equation; settings: 96 hours, substance and dose g a.i./ha per treatment number of Table 5B
Description: as §1, §2, §3, §4, §5
(§6) Morality on S. frugiperda was evaluated according to protocols G and H (refer to Table 5B), but where two S. frugiperda strains were tested: a laboratory strain (susceptible) and a field strain in F3 generation sampled in the 2018/2019 season in Sinop-MT region using treatment numbers 5.1 to 5.10 (refer to Table 5B). The results are reported in Tables 5E (Laboratory Strain) and 5F (Filed Strain).

[2] = tested on: S. frugiperda field strain; assay: Example 5C, protocol H: mortality on treated leaves, synergy by Colby equation; settings: for Mortality: field strain, 96 hours, substance and dose g a.i./ha per treatment number of Table 5B
Description: as §1, §2, §3, §4, §5, §6

C. includens = assay: Example 5A, protocol A: mortality on treated leaves, synergy by Colby equation; settings: for Mortality: mean mortality after 96 hours, substance and dose g a.i./ha per treatment number of Table 5B
Description: as §1, §2, §3, §4, §5
Morality on C. includens was evaluated according to protocol A (refer to Table 5B) using treatment numbers 5.1, 5.3, 5.5 to 5.8 and 5.10 to 5.13 (refer to Table 5B). The results are reported in Table 5C below where mortality is the mean mortality, the E value was calculated by the Colby equation, and the synergy value is determined by dividing the mean mortality (%) by the expected value (E).

[3] = tested on: E. heros 3rd instar nymphs; assay: Example 5D, protocol C: mortality on sprayed soybean plants after 72 hours, synergy by Colby equation; settings: for Mortality: E. heros 3rd instar nymphs, sprayed soybean plants (V2), after 72 hours, Table 5G
Description: as §1, §2, §4, §5
(§7) Morality on E. heros was evaluated according to protocols C and D (refer to Table 5B). In the evaluation method, insecticides (treatment numbers 5.1, 5.3, 5.5 to 5.8 and 5.10 to 5.13 (refer to Table 5B)) were applied over soybean plants at V2 stage inside a spray chamber. After a drying period, a first portion of the plants were infested with 10 3rd instar nymphs of E. heros per plant, with three repetitions per treatment with a total of 30 nymphs per treatment. After the drying period, a second portion of the plants were infested with 10 adults of E. heros per plant, with three repetitions per treatment with a total of 30 adults per treatment. Infested plants were maintained in a greenhouse controlled at a temperature of 26° C. Mortality was evaluated after 72 hours. The results are reported in Tables 5G (nymphs) and 5H (adults).

E. heros adults = assay: Example 5D, protocol D: mortality on sprayed soybean plants after 72 hours, synergy by Colby equation; set-up: concentration or dose not given beside the values; settings: sprayed soybean plants (V2), Table 5H
Description: as §1, §2, §4, §5, §7

[4] = tested on: D. melachantus 3rd instar nymphs; assay: Example 5E, protocol E: mortality on sprayed plants after 72 hours, synergy by Colby equation; set-up: Mortality: concentration or dose not given beside the values; settings: for Mortality: D. melachantus nymphs, sprayed plants, after 72 hours, Table 5I
Description: as §1, §2, §4, §5, §7
(§8) Morality on D. melachantus was evaluated according to protocols E and F (refer to Table 5B). In the evaluation method, insecticides (treatment numbers 5.1, 5.3, 5.5 to 5.8 and 5.10 to 5.13 (refer to Table 5B)). Evaluation was done according to the method of Example 5D. The results are reported in Tables 5I (nymphs) and 5J (adults).

D. melachantus adults = assay: Example 5E, protocol F: mortality on sprayed plants after 72 hours, synergy by Colby equation; set-up: concentration or dose not given beside the values; settings: Table 5J
Description: as §1, §2, §4, §5, §7, §8

## Cc1c(COC(=O)[C@@H]2[C@H](/C=C(\Cl)C(F)(F)F)C2(C)C)cccc1-c1ccccc1 (racemic) [Treatment 5.4, Bifenthrin]
H. armigera; listed as 5.4
  Mortality: 0%
[1]; listed as 5.4
  Mortality: 34.4%
[2]; listed as 5.4
  Mortality: 3.1%

## CNC(=O)c1cc(Cl)cc(C)c1NC(=O)c1cc(Br)nn1-c1ncccc1Cl [Treatment 5.2, Chlorantraniliprole]
H. armigera; listed as 5.2
  Mortality: 84.4%
[1]; listed as 5.2
  Mortality: 96.9%
[2]; listed as 5.2
  Mortality: 40.6%

## Cc1c(COC(=O)[C@@H]2[C@H](/C=C(\Cl)C(F)(F)F)C2(C)C)cccc1-c1ccccc1 (racemic) [Treatment 5.6, Bifenthrin]
C. includens; listed as 5.6
  Mortality: 68.8%
H. armigera; listed as 5.6
  Mortality: 0%
[1]; listed as 5.6
  Mortality: 78.1%
[2]; listed as 5.6
  Mortality: 15.6%
[3]; listed as 5.6
  Mortality: 43.3%
E. heros adults; listed as 5.6
  Mortality: 30.0%
[4]; listed as 5.6
  Mortality: 70.0%
D. melachantus adults; listed as 5.6
  Mortality: 70.0%

## Cc1c(COC(=O)[C@@H]2[C@H](/C=C(\Cl)C(F)(F)F)C2(C)C)cccc1-c1ccccc1 (racemic) [Treatment 5.7, Bifenthrin]
C. includens; listed as 5.7
  Mortality: 78.1%
H. armigera; listed as 5.7
  Mortality: 0%
[1]; listed as 5.7
  Mortality: 96.9%
[2]; listed as 5.7
  Mortality: 43.8%
[3]; listed as 5.7
  Mortality: 76.7%
E. heros adults; listed as 5.7
  Mortality: 56.7%
[4]; listed as 5.7
  Mortality: 100%
D. melachantus adults; listed as 5.7
  Mortality: 100%

## CNC(=O)c1cc(Cl)cc(C)c1NC(=O)c1cc(Br)nn1-c1ncccc1Cl [Chlorantraniliprole, 5-bromo-N-[4-chloro-2-methyl-6-(methylcarbamoyl)phenyl]-2-(3-chloropyridin-2-yl)pyrazole-3-carboxamide]
C. includens; 7.5 g a.i./ha
  control of C. includens, in words: most effective
H. armigera; 7.5 g a.i./ha
  H. armigera control, in words: most effective
[3]; nymphs and adults (protocols C and D)
  control of E. heros, in words: did not control
[4]; nymphs and adults (protocols E and F)
  control of D. melacanthus, in words: did not control

## Cc1c(COC(=O)[C@@H]2[C@H](/C=C(\Cl)C(F)(F)F)C2(C)C)cccc1-c1ccccc1 (racemic) [Bifenthrin, 2-methylbiphenyl-3-ylmethyl (Z)-(1RS)-cis-3-(2-chloro-3,3,3-trifluoroprop-1-enyl)-2,2-dimethyl cyclopropanecarboxylate]
H. armigera; even at a higher dose of 60 g a.i./ha, resistance to pyrethroids
  H. armigera control, in words: lower control
[2]; lower doses, especially on the field strain
  control of S. frugiperda, in words: lower control

## CNC(=O)c1cc(Cl)cc(C)c1NC(=O)c1cc(Br)nn1-c1ncccc1Cl [Treatment 5.3, Chlorantraniliprole]
C. includens
  Mortality: 100%
H. armigera; listed as 5.3
  Mortality: 100%
[1]; listed as 5.3
  Mortality: 100%
[2]; listed as 5.3
  Mortality: 59.4%
[3]
  Mortality: 0%
E. heros adults
  Mortality: 3.3%
[4]
  Mortality: 7.0%
D. melachantus adults
  Mortality: 0%

## Cc1c(COC(=O)[C@@H]2[C@H](/C=C(\Cl)C(F)(F)F)C2(C)C)cccc1-c1ccccc1 (racemic) [Treatment 5.8, Bifenthrin]
C. includens; listed as 5.8
  Mortality: 78.1%
H. armigera; listed as 5.8
  Mortality: 9.4%
[1]; listed as 5.8
  Mortality: 93.8%
[2]; listed as 5.8
  Mortality: 43.8%
[3]; listed as 5.8
  Mortality: 85.2%
E. heros adults; listed as 5.8
  Mortality: 80.0%
[4]; listed as 5.8
  Mortality: 100%
D. melachantus adults; listed as 5.8
  Mortality: 100%

## Cc1c(COC(=O)[C@@H]2[C@H](/C=C(\Cl)C(F)(F)F)C2(C)C)cccc1-c1ccccc1 (racemic) [Treatment 5.5, Bifenthrin]
C. includens; listed as 5.5
  Mortality: 34.4%
H. armigera; listed as 5.5
  Mortality: 0%
[1]; listed as 5.5
  Mortality: 53.1%
[2]; listed as 5.5
  Mortality: 3.1%
[3]; listed as 5.5
  Mortality: 38.9%
E. heros adults; listed as 5.5
  Mortality: 3.3%
[4]; listed as 5.5
  Mortality: 56.7%
D. melachantus adults; listed as 5.5
  Mortality: 39.3%
